In ChEMBL document CHEMBL3046521, “Synthesis and antitumor activity of (4-hydroxyphenyl)[5-substituted alkyl/aryl)-2-thioxo-1,3,4-thiadiazol-3-yl]methanone and [(3,4-disubstituted)-1,3-thiazol-2ylidene]-4-hydroxybenzohydrazide” (2011):

Experiments:
Type in all cases: functional
HCT-116 = experiment: Cytotoxicity against Homo sapiens (human) HCT116 cells after 48 hr by sulforhodamine B assay; details: HCT-116, 48 h; for TGI: read-out: pTGI (converted)
HCC 2998 = experiment: Cytotoxicity against Homo sapiens (human) HCC2998 cells after 48 hr by sulforhodamine B assay; details: HCC 2998, 48 h; for TGI: read-out: pTGI (converted)
COLO 205 = experiment: Cytotoxicity against Homo sapiens (human) COLO205 cells after 48 hr by sulforhodamine B assay; details: COLO 205, 48 h; for TGI: read-out: pTGI (converted)
NCI-H522 = experiment: Cytotoxicity against Homo sapiens (human) NCI-H522 cells after 48 hr by sulforhodamine B assay; details: NCI-H522, 48 h; for TGI: read-out: pTGI (converted)
NCI-H23 = experiment: Cytotoxicity against Homo sapiens (human) NCI-H23 cells after 48 hr by sulforhodamine B assay; details: NCI-H23, 48 h; for TGI: read-out: pTGI (converted)
HOP-92 = experiment: Cytotoxicity against Homo sapiens (human) HOP92 cells after 48 hr by sulforhodamine B assay; details: HOP-92, 48 h; for TGI: read-out: pTGI (converted)
HOP-62 = experiment: Cytotoxicity against Homo sapiens (human) HOP62 cells after 48 hr by sulforhodamine B assay; details: HOP-62, 48 h; for TGI: read-out: pTGI (converted)
MOLT-4 = experiment: Cytotoxicity against Homo sapiens (human) MOLT4 cells after 48 hr by sulforhodamine B assay; details: MOLT-4, 48 h; for TGI: read-out: pTGI (converted)
[1] = Cytotoxicity against Homo sapiens (human) […] cells after 48 hr by sulforhodamine B assay; details: for TGI: read-out: pTGI (converted)
HL-60(TB) = experiment: Cytotoxicity against Homo sapiens (human) HL-60(TB) cells after 48 hr by sulforhodamine B assay; details: HL-60, 48 h; for CC50: read-out: pLC50 (the source's name) (converted); for TGI: read-out: pTGI (converted)
CCRF-CEM = experiment: Cytotoxicity against Homo sapiens (human) CCRF-CEM cells after 48 hr by sulforhodamine B assay; details: for TGI: read-out: pTGI
MDA-MB-468 = experiment: Cytotoxicity against Homo sapiens (human) MDA-MB-468 cells after 48 hr by sulforhodamine B assay; details: MDA-MB-468, 48 h; for TGI: read-out: pTGI (converted)
BT-549 = experiment: Cytotoxicity against Homo sapiens (human) BT549 cells after 48 hr by sulforhodamine B assay; details: BT-549, 48 h; for TGI: read-out: pTGI (converted)
Hs-578T = experiment: Cytotoxicity against Homo sapiens (human) Hs 578T cells after 48 hr by sulforhodamine B assay; details: for TGI: read-out: pTGI (converted)
MCF7 = experiment: Cytotoxicity against Homo sapiens (human) MCF7 cells after 48 hr by sulforhodamine B assay; details: MCF7, 48 h; for TGI: read-out: pTGI (converted)
MDA-MB-231 = experiment: Cytotoxicity against Homo sapiens (human) MDA-MB-231 cells after 48 hr by sulforhodamine B assay; details: MDA-MB-231, 48 h; for TGI: read-out: pTGI (converted)
SN12C = experiment: Cytotoxicity against Homo sapiens (human) SN12C cells after 48 hr by sulforhodamine B assay; details: for TGI: read-out: pTGI (converted)
CAKI-1 = experiment: Cytotoxicity against Homo sapiens (human) Caki1 cells after 48 hr by sulforhodamine B assay; details: CAKI-1, 48 h; for TGI: read-out: pTGI (converted)
SK-OV-3 = experiment: Cytotoxicity against Homo sapiens (human) SKOV3 cells after 48 hr by sulforhodamine B assay; details: SK-OV-3, 48 h; for TGI: read-out: pTGI (converted)
OVCAR-8 = experiment: Cytotoxicity against Homo sapiens (human) OVCAR8 cells after 48 hr by sulforhodamine B assay; details: OVCAR-8, 48 h; for TGI: read-out: pTGI (converted)
OVCAR-3 = experiment: Cytotoxicity against Homo sapiens (human) OVCAR3 cells after 48 hr by sulforhodamine B assay; details: OVCAR-3, 48 h; for TGI: read-out: pTGI (converted)
IGROV-1 = experiment: Cytotoxicity against Homo sapiens (human) IGROV1 cells after 48 hr by sulforhodamine B assay; details: IGROV-1, 48 h; for TGI: read-out: pTGI (converted)
SK-MEL-5 = experiment: Cytotoxicity against Homo sapiens (human) SK-MEL-5 cells after 48 hr by sulforhodamine B assay; details: SK-MEL-5, 48 h; for TGI: read-out: pTGI (converted)
MDA-MB-435 = experiment: Cytotoxicity against Homo sapiens (human) MDA-MB-435 cells after 48 hr by sulforhodamine B assay; details: MDA-MB-435, 48 h; for TGI: read-out: pTGI (converted)
M14 = experiment: Cytotoxicity against Homo sapiens (human) M14 cells after 48 hr by sulforhodamine B assay; details: M14, 48 h; for TGI: read-out: pTGI (converted)
Malme-3M = experiment: Cytotoxicity against Homo sapiens (human) MALME-3M cells after 48 hr by sulforhodamine B assay; details: for TGI: read-out: pTGI (converted)
SNB-19 = experiment: Cytotoxicity against Homo sapiens (human) SNB19 cells after 48 hr by sulforhodamine B assay; details: SNB-19, 48 h; for TGI: read-out: pTGI (converted)
SW-620 = experiment: Cytotoxicity against Homo sapiens (human) SW620 cells after 48 hr by sulforhodamine B assay; details: SW-620, 48 h; for TGI: read-out: pTGI (converted)
LOX IMVI = experiment: Anticancer activity in Homo sapiens (human) LOXIMVI cells assessed as cell growth at 10^-5 M after 48 hr by SRB assay; details: read-out: Activity

Which results are given for Cc1ccc(-c2cs/c(=N\NC(=O)c3ccc(O)cc3)n2-c2c(C)cccc2C)cc1?
GI50 (HCT-116): 22.9 µM; LC50 (HCT-116): > 100 µM; TGI (HCT-116): > 100 µM; GI50 (HCC 2998): 15.5 µM; LC50 (HCC 2998): > 100 µM; TGI (HCC 2998): 43.7 µM; GI50 (COLO 205): 16.6 µM; LC50 (COLO 205): > 100 µM; TGI (COLO 205): 66.1 µM; GI50 (NCI-H522): 20.9 µM; LC50 (NCI-H522): > 100 µM; TGI (NCI-H522): > 100 µM; GI50 (NCI-H23): 25.7 µM; LC50 (NCI-H23): > 100 µM; TGI (NCI-H23): > 100 µM; GI50 (HOP-92): 1.32 µM; LC50 (HOP-92): > 100 µM; TGI (HOP-92): 26.3 µM; GI50 (HOP-62): 23.4 µM; LC50 (HOP-62): > 100 µM; TGI (HOP-62): 74.1 µM; GI50 (MOLT-4): 13.5 µM; LC50 (MOLT-4): > 100 µM; TGI (MOLT-4): 57.5 µM; GI50 [1]: 20 µM; LC50 [1]: > 100 µM; TGI [1]: > 100 µM; GI50 (HL-60(TB)): 11.5 µM; CC50 (HL-60(TB)): > 100 µM; TGI (HL-60(TB)): 64.6 µM; GI50 (CCRF-CEM): 33.1 µM; LC50 (CCRF-CEM): > 100 µM; TGI (CCRF-CEM): > 100 µM; GI50 (MDA-MB-468): 12 µM; LC50 (MDA-MB-468): > 100 µM; TGI (MDA-MB-468): > 100 µM; GI50 (BT-549): 21.9 µM; LC50 (BT-549): > 100 µM; TGI (BT-549): > 100 µM; GI50 (Hs-578T): 23.4 µM; LC50 (Hs-578T): > 100 µM; TGI (Hs-578T): 91.2 µM; GI50 (MCF7): 23.4 µM; LC50 (MCF7): > 100 µM; TGI (MCF7): 95.5 µM; GI50 (MDA-MB-231): 18.2 µM; LC50 (MDA-MB-231): > 100 µM; TGI (MDA-MB-231): > 100 µM; GI50 (SN12C): 25.7 µM; LC50 (SN12C): > 100 µM; TGI (SN12C): > 100 µM; GI50 (CAKI-1): 10.5 µM; LC50 (CAKI-1): > 100 µM; TGI (CAKI-1): > 100 µM; GI50 (SK-OV-3): 30.9 µM; LC50 (SK-OV-3): > 100 µM; TGI (SK-OV-3): > 100 µM; GI50 (OVCAR-8): 31.6 µM; LC50 (OVCAR-8): > 100 µM; TGI (OVCAR-8): > 100 µM; GI50 (OVCAR-3): 17.8 µM; LC50 (OVCAR-3): > 100 µM; TGI (OVCAR-3): 47.9 µM; GI50 (IGROV-1): 20 µM; LC50 (IGROV-1): > 100 µM; TGI (IGROV-1): > 100 µM; GI50 (SK-MEL-5): 14.5 µM; LC50 (SK-MEL-5): 61.7 µM; TGI (SK-MEL-5): 30.2 µM; GI50 (MDA-MB-435): 16.6 µM; LC50 (MDA-MB-435): > 100 µM; TGI (MDA-MB-435): 85.1 µM; GI50 (M14): 21.4 µM; LC50 (M14): > 100 µM; TGI (M14): 72.4 µM; GI50 (Malme-3M): 22.4 µM; LC50 (Malme-3M): > 100 µM; TGI (Malme-3M): 85.1 µM; GI50 (SNB-19): 20.9 µM; LC50 (SNB-19): > 100 µM; TGI (SNB-19): > 100 µM; GI50 (SW-620): 28.8 µM; LC50 (SW-620): > 100 µM; TGI (SW-620): > 100 µM

What does the source list for COc1ccc(-c2cs/c(=N\NC(=O)c3ccc(O)cc3)n2-c2ccc(OC)cc2OC)cc1?
GI50 (HCT-116): 5.13 µM; LC50 (HCT-116): > 100 µM; TGI (HCT-116): 28.2 µM; GI50 (HCC 2998): 1.95 µM; LC50 (HCC 2998): 53.7 µM; TGI (HCC 2998): 5.25 µM; GI50 (COLO 205): 4.47 µM; LC50 (COLO 205): 79.4 µM; TGI (COLO 205): 20.9 µM; GI50 (NCI-H522): 2.57 µM; LC50 (NCI-H522): > 100 µM; TGI (NCI-H522): 20 µM; GI50 (NCI-H23): 11 µM; LC50 (NCI-H23): > 100 µM; TGI (NCI-H23): > 100 µM; GI50 (HOP-92): 3.31 µM; LC50 (HOP-92): > 100 µM; TGI (HOP-92): 37.2 µM; GI50 (HOP-62): 2.95 µM; LC50 (HOP-62): 49 µM; TGI (HOP-62): 7.59 µM; GI50 (MOLT-4): 1.2 µM; LC50 (MOLT-4): > 100 µM; TGI (MOLT-4): 23.4 µM; GI50 [1]: 3.8 µM; LC50 [1]: > 100 µM; TGI [1]: > 100 µM; GI50 (HL-60(TB)): 3.02 µM; CC50 (HL-60(TB)): > 100 µM; TGI (HL-60(TB)): 38 µM; GI50 (CCRF-CEM): 9.77 µM; LC50 (CCRF-CEM): > 100 µM; TGI (CCRF-CEM): > 100 µM; growth at 10 µM (LOX IMVI): 58.3%; GI50 (MDA-MB-468): 3.89 µM; LC50 (MDA-MB-468): > 100 µM; TGI (MDA-MB-468): > 100 µM; GI50 (BT-549): 14.1 µM; LC50 (BT-549): > 100 µM; TGI (BT-549): 69.2 µM; GI50 (Hs-578T): 6.92 µM; LC50 (Hs-578T): > 100 µM; TGI (Hs-578T): 53.7 µM; GI50 (MCF7): 3.72 µM; LC50 (MCF7): > 100 µM; TGI (MCF7): 28.8 µM; GI50 (MDA-MB-231): 3.16 µM; LC50 (MDA-MB-231): > 100 µM; TGI (MDA-MB-231): 20 µM; GI50 (SN12C): 6.61 µM; LC50 (SN12C): > 100 µM; TGI (SN12C): 57.5 µM; GI50 (CAKI-1): 3.31 µM; LC50 (CAKI-1): > 100 µM; TGI (CAKI-1): 52.5 µM; GI50 (SK-OV-3): 15.1 µM; LC50 (SK-OV-3): > 100 µM; TGI (SK-OV-3): 100 µM; GI50 (OVCAR-8): 10.2 µM; LC50 (OVCAR-8): > 100 µM; TGI (OVCAR-8): > 100 µM; GI50 (OVCAR-3): 3.8 µM; LC50 (OVCAR-3): 95.5 µM; TGI (OVCAR-3): 17 µM; GI50 (IGROV-1): 7.94 µM; LC50 (IGROV-1): > 100 µM; TGI (IGROV-1): > 100 µM; GI50 (SK-MEL-5): 5.37 µM; LC50 (SK-MEL-5): 52.5 µM; TGI (SK-MEL-5): 19.5 µM; GI50 (MDA-MB-435): 2.88 µM; LC50 (MDA-MB-435): > 100 µM; TGI (MDA-MB-435): 22.9 µM; GI50 (M14): 5.5 µM; LC50 (M14): > 100 µM; TGI (M14): 27.5 µM; GI50 (Malme-3M): 5.37 µM; LC50 (Malme-3M): > 100 µM; TGI (Malme-3M): 64.6 µM; GI50 (SNB-19): 10.7 µM; LC50 (SNB-19): > 100 µM; TGI (SNB-19): > 100 µM; GI50 (SW-620): 4.37 µM; LC50 (SW-620): > 100 µM; TGI (SW-620): 43.7 µM
